Square brackets hold non-standard residues; d marks the D form. Peptide text beside a SMILES is read from it. * marks the point of attachment. dPhe(4-NHCONH2) = NC(=O)Nc1ccc(C[C@@H](N)C(=O)O)cc1; Dihydroorotyl(S) = O=C1C[C@@H](C(=O)*)NC(=O)N1; dPhe(4-Cl) = N[C@H](Cc1ccc(Cl)cc1)C(=O)O; Phe(4-NH2) = Nc1ccc(C[C@H](N)C(=O)O)cc1; d2Nal = N[C@H](Cc1ccc2ccccc2c1)C(=O)O; Lys(iPr) = CC(C)NCCCC[C@H](N)C(=O)O; d3Pal = N[C@H](Cc1cccnc1)C(=O)O
Legend:
clinical = conditions: human, in vivo, sc
Protocol: Median degarelix trough concentrations in the maintenance phase with 80 mg at a concentration of 20 mg/mL was 10.9 ng/mL.
The long half-life after subcutaneous administration is a consequence of a very slow release of degarelix from the depot formed at the injection site(s). The pharmacokinetic behavior of the drug is strongly influenced by its concentration in the injection formulation.

[1] = set-up: species or system human; conditions: in vivo
From the text: Plasma protein binding is estimated to be approximately 90%.

human CYP450 system = format: in vitro ADME
testosterone [2] = assay: CS21 phase 3 study, degarelix vs leuprolide 7.5 mg: serum testosterone suppression; format: in vivo, human; conditions: for Probability of sufficient testosterone response / Probability of testosterone ≤0.5 ng/mL from Day 28 through Day 364 / Probability of testosterone ≤0.5 ng/mL from Day 56 through Day 364: age <65
Protocol: In this example, an open-label, multi-center, randomized, parallel-group study was conducted to investigate the efficacy and safety of degarelix one month dosing regimens. […] These degarelix dosing regimens were compared to LUPRON DEPOT™ at 7.5 mg in patients with prostate cancer requiring androgen ablation therapy. […] Finally, the study evaluated the pharmacokinetics of the degarelix dosing regimens investigated. […] The primary efficacy endpoint was analyzed for both the ITT and PP analysis sets, with the ITT analysis set considered primary. The primary efficacy endpoint was analyzed using the Kaplan Meier method. For each of the three treatment groups, testosterone response rates with 95% confidence interval (CI) were calculated by log-log transformation of survivor function. […] All secondary efficacy endpoints were analyzed for both the ITT and PP analysis sets, unless otherwise stated. […] The percentage change in PSA from baseline to day 28 endpoint was analyzed by a Wilcoxon test. […] The secondary endpoints; probability of testosterone ≤0.5 ng/mL from Day 56 through Day 364, time to PSA failure and probability of sufficient testosterone response from Day 28 through Day 364 were analyzed by the Kaplan-Meier method.

[3] = CS21: incidence rates of cardiovascular events per 1,000 person years (Poisson model), by risk-factor subgroup
From the text: The SCS summarizes both crude incidences (n/N) as well as incidence rates of adverse events (number of patients with at least one adverse event investigated per 1,000 person years) including exact 95% CI based on the Poisson model and presented per MedDRA Preferred term (and grouped by SOC) for all study-groups, including the CS21 trial (the trial comprising the controlled phase 3 study group) and for all sub-groups. Briefly, the Poisson model provides exact 1-α lower (LL) and upper (UL) confidence limits are LL=χ2x; α/2^2/(2T) and UL=χ2(x+1); 1-α/2^2/(2T), respectively, where T is the number of 1,000 person years and x=number of subjects at least once having reported the adverse event under investigation (see Gerlinger et al. (2003) Eur. J. Contracept. Reprod. Health Care 8:87-92).
These P values were presented as *(0.01<P≤0.05), ** (0.001<P≤0.01), and *** (P≤0.001). Similarly, incidence rates were compared using P values associated with the Poison model-based UMPU test. Briefly, assuming xi˜Poisson(λiTi), where xi=the number of subjects with the event, Ti=total number of 1,000 person years in arm i and λi=incidence rate in arm i (i=1,2), then the P value=2 min ([…], P(S≤x1), 0.5), where S˜Binomial (x1+x2, T1/(T1+T2)) (see, e.g. Lehmann (1986) Testing Statistical Hypotheses, 2nd edition, Springer-Verlag, New York).
In the SCS, cardiovascular events were more specifically investigated on more aggregated MedDRA levels, i.e. the incidence, and incidence rates of subject with AEs in the following High Level Group Terms were tabulated by study group and treatment:
These subgroup analyses were not pre-planned as part of the SCS.

testosterone [4] = assay: Example 2: serum testosterone (LC-MS/MS); format: in vivo, human; conditions: from Day 28 (Month 1)
Protocol: Serum testosterone was typically measured at baseline and then monthly in all cases. Serum testosterone was measured at a central laboratory using a validated liquid chromatography system with a tandem mass spectrometry assay with a lower limit of quantitation of 3 ng/dl.

[5] = in vivo
Protocol: In this example, a study was conducted to investigate the risk of cardiovascular events when ADT is utilized by a GnRH antagonist versus agonist in patients with or without a history of cardiovascular events.
Specifically, this study utilized available data yielding a safety database of 2328 PCa (prostate cancer) patients who participated in randomized clinical trials and received treatment with either degarelix or a GnRH agonist for up to 12 months (13 treatment months).
The study is based on data from two completed Phase 3 and 4 Phase 3b trials, all of which used an active comparator in form of a GnRH agonist. In each study, the primary inclusion criteria were male subjects ≥8 years of age with histologically confirmed adenocarcinoma of the prostate in whom ADT was indicated and a life expectancy of minimum 12 months could be anticipated. All subjects had serum testosterone levels that were either within the age-specified normal range or above the lower limit of the normal range of the central laboratory and ECOG score ≤2. Exclusion criterion ensured that none of the subjects had received long-term ADT (>6 months) before study entry.
Baseline evaluation included thorough collection of the main demographic characteristics (age, weight, height), lifestyle factors (smoking and drinking habits), and major CV risk factors (treated type 2 diabetes, treated hyperlipidemia, treated hypertension, and systolic and diastolic blood pressure). Patients also underwent physical examination and ECG assessment for potential cardiac morbidities. Medical history of CV events was captured by the following Standardized MedDRA Queries (myocardial infarction, ischemic heart diseases, ischemic stroke, hemorrhagic stroke, other arterial thrombotic/embolic events).
Cardiovascular events of interest were collected prospectively, typically at monthly visits, as adverse events or serious adverse events with date of occurrence. These events were coded using standard MedDRA terms and grouped into one of the same categories as those used to collect medical history.
The CV event rates in agonist and antagonist-treated patients were analyzed by 1-Kaplan-Meier plots of time to first-reported CV events and compared with log-rank test. The analysis was performed separately for strata of patients with or without history of CV events. To identify independent predictors of CV events we applied multivariate Cox proportional hazards models.
To further explore the apparent independent role of treatment choice and identify independent modifiable risk factors, this study established Cox proportional hazard models including CV events occurring during treatment as dependent variable and age, history of CV event, drinking (i.e., high alcohol consumption or abstinence) and smoking habits, hypertension, serum testosterone level and PCa disease stage as independent variables.

[6] = human, in vivo
From the text: Safety data from all clinical trials with degarelix in the treatment of prostate cancer, including patients receiving other dosing regimens, were pooled.

[7] = in vivo; remark: listed apart in the source
Protocol: Laboratory parameters (Table 4) were recorded at screening and during the study.

[8] = degarelix 240@40/80@20, LUPRON DEPOT 7.5 mg
[9] = degarelix 240/80 mg, leuprolide 7.5 mg

CC(=O)N[C@H](Cc1ccc2ccccc2c1)C(=O)N[C@H](Cc1ccc(Cl)cc1)C(=O)N[C@H](Cc1cccnc1)C(=O)N[C@@H](CO)C(=O)N[C@@H](Cc1ccc(NC(=O)[C@@H]2CC(=O)NC(=O)N2)cc1)C(=O)N[C@H](Cc1ccc(NC(N)=O)cc1)C(=O)N[C@@H](CC(C)C)C(=O)N[C@@H](CCCCNC(C)C)C(=O)N1CCC[C@H]1C(=O)N[C@H](C)C(N)=O [Degarelix, D-Alaninamide, N-acetyl-3-(2-naphthalenyl)-D-alanyl-4-chloro-D-phenylalanyl-3-(3-pyridinyl)-D-alanyl-L-seryl-4-[[[(4S)-hexahydro-2,6-dioxo-4-pyrimidinyl]carbonyl]amino]-L phenylalanyl-4-[(aminocarbonyl)amino]-D-phenylalanyl-L leucyl-N6-(1-methylethyl)-L-lysyl-L-prolyl] (Ac-[d2Nal][dPhe(4-Cl)][d3Pal]S[Phe(4-NH2)](Dihydroorotyl(S))[dPhe(4-NHCONH2)]L[Lys(iPr)]P[dA]-NH2)
metabolites in plasma samples (clinical): No significant metabolites were detected | Median degarelix trough concentration (clinical; male, 80 mg): 10.9 ng/mL | AUC (clinical; male, 240 mg): 29800 ng·h/mL | distribution volume [1]: approximately 1 L/kg | fraction excreted via the hepato-biliary system [1]: approximately 80% | fraction of dose renally excreted [1]: approximately 20% | substrate for the human CYP450 system (human CYP450 system): not a substrate for the human CYP450 system | median testosterone level (testosterone [2]; after one year of treatment, 80 mg monthly): 0.087 ng/mL | Probability of sufficient testosterone response (testosterone [2]; degarelix 240/160@40): 96.7% | Probability of testosterone ≤0.5 ng/mL from Day 28 through Day 364 (testosterone [2]; degarelix 240/160@40): 96.7% | Probability of testosterone ≤0.5 ng/mL from Day 56 through Day 364 (testosterone [2]; degarelix 240/160@40): 96.7% | Probability of sufficient testosterone response (testosterone [2]; [8]): 97.4% | Probability of testosterone ≤0.5 ng/mL from Day 28 through Day 364 (testosterone [2]; [8]): 97.4% | Probability of testosterone ≤0.5 ng/mL from Day 56 through Day 364 (testosterone [2]; [8]): 97.4% | patients with testosterone suppression on day 3 (testosterone [2]; day 3): 96% | Kaplan-Meier probability of testosterone ≤0.5 ng/mL from day 28 to day 364 (testosterone [2]; [9]): 97.2% | observed cases analysis: proportion of patients with testosterone ≤0.5 ng/mL from day 28 to day 364 (testosterone [2]; [9]): 97.0% | Kaplan-Meier probability of testosterone ≤0.5 ng/mL from day 28 to day 364 (testosterone [2]; degarelix 240/160 mg): 98.3% | observed cases analysis: proportion of patients with testosterone ≤0.5 ng/mL from day 28 to day 364 (testosterone [2]; degarelix 240/160 mg): 98.2% | patients with testosterone surge (increase ≥15% from baseline) (testosterone [2]; first two weeks, pooled degarelix, leuprolide 7.5 mg): 0.2% | patients with sustained testosterone suppression (testosterone [2]; maintenance monthly 80 mg, at least one year): 97% | Cardiac arrhythmias, relative risk degarelix vs Lupron ([3]; BMI 25-<30 kg/m2): 0.566 | Cardiac disorders (SOC), relative risk degarelix vs Lupron ([3]; BMI 25-<30 kg/m2): 0.765 | Coronary artery disorders, relative risk degarelix vs Lupron ([3]; BMI 25-<30 kg/m2): 1.013 | Cardiac arrhythmias, relative risk degarelix vs Lupron ([3]; BMI <25 kg/m2): 0.312 | Cardiac disorders (SOC), relative risk degarelix vs Lupron ([3]; BMI <25 kg/m2): 0.242 | Coronary artery disorders, relative risk degarelix vs Lupron ([3]; BMI <25 kg/m2): 0.000 | Coronary artery disorders, relative risk degarelix vs Lupron ([3]; BMI <25 kg/m2, listed as degarelix): 0.0 | Cardiac arrhythmias, relative risk degarelix vs Lupron ([3]; BMI >=30 kg/m2): 3.161 | Cardiac disorders (SOC), relative risk degarelix vs Lupron ([3]; BMI >=30 kg/m2): 1.946 | Coronary artery disorders, relative risk degarelix vs Lupron ([3]; BMI >=30 kg/m2): 1.217 | Cardiac arrhythmias, relative risk degarelix vs Lupron ([3]; Cholesterol <4 mmol/L): 1.973 | Cardiac arrhythmias, relative risk degarelix vs Lupron ([3]; Cholesterol >=4 mmol/L): 0.411 | Cardiac arrhythmias, relative risk degarelix vs Lupron ([3]; Cholesterol >=4 mmol/L, listed as degarelix): 0.41 | Coronary artery disease, % of patients ([3]; in vivo): (3%) | Coronary artery disease, incidence rate ([3]; in vivo): 34.2 per 1,000 person years | HLGT Cardiac arrhythmias, % of patients ([3]; in vivo): (5%) | HLGT Cardiac arrhythmias, incidence rate ([3]; in vivo): 57.7 per 1,000 person years | HLGT Central nervous system vascular disorders, % of patients ([3]; in vivo): (<1%) | HLGT Central nervous system vascular disorders, incidence rate ([3]; in vivo): 14.2 per 1,000 person years | HLGT Coronary artery disorders, % of patients ([3]; in vivo): (3%) | HLGT Coronary artery disorders, incidence rate ([3]; in vivo): 34.2 per 1,000 person years | HLGT Heart failures, % of patients ([3]; in vivo): (<1%) | HLGT Heart failures, incidence rate ([3]; in vivo): 14.1 per 1,000 person years | Heart failure, % of patients ([3]; in vivo): (1%) | Heart failure, incidence rate ([3]; in vivo): 14.1 per 1,000 person years | MI, % of patients ([3]; in vivo): (<1%) | MI, incidence rate ([3]; in vivo): 5.64 per 1,000 person years | Stroke, % of patients ([3]; in vivo): (<1%) | Stroke, incidence rate ([3]; in vivo): 8.49 per 1,000 person years | median testosterone level (testosterone [4]): < 0.5 ng/mL | Any CV adverse event, % (adverse events E) [5]: 6.0% | Any CV adverse event, % of patients with adverse events [5]: 2.9% | Any CV adverse event, E = Number of adverse events [5]: 90 | Any CV adverse event, N = Number of patients with adverse events [5]: 44 | HR for CV event, degarelix versus the agonist [5]: 0.62 | HR for CV event, degarelix vs agonist [5]: 0.49 | Hemorrhagic stroke, % (adverse events E) [5]: 0.2% | Hemorrhagic stroke, % of patients with adverse events [5]: 0.2% | Hemorrhagic stroke, E = Number of adverse events [5]: 3 | Hemorrhagic stroke, N = Number of patients with adverse events [5]: 3 | Ischemic heart disease, % (adverse events E) [5]: 1.8% | Ischemic heart disease, % of patients with adverse events [5]: 1.7% | Ischemic heart disease, E = Number of adverse events [5]: 27 | Ischemic heart disease, N = Number of patients with adverse events [5]: 25 | Ischemic stroke, % (adverse events E) [5]: 1.1% | Ischemic stroke, % of patients with adverse events [5]: 0.9% | Ischemic stroke, E = Number of adverse events [5]: 16 | Ischemic stroke, N = Number of patients with adverse events [5]: 14 | Myocardial infarction, % (adverse events E) [5]: 1.0% | Myocardial infarction, % of patients with adverse events [5]: 0.8% | Myocardial infarction, E = Number of adverse events [5]: 15 | Myocardial infarction, N = Number of patients with adverse events [5]: 13 | Other embolic or thrombotic events, arterial, % (adverse events E) [5]: 1.9% | Other embolic or thrombotic events, arterial, % of patients with adverse events [5]: 1.5% | Other embolic or thrombotic events, arterial, E = Number of adverse events [5]: 29 | Other embolic or thrombotic events, arterial, N = Number of patients with adverse events [5]: 23 | risk of a CV event lower if taking degarelix versus the agonist [5]: 38% | drug-related erectile dysfunction, gynaecomastia, hyperhidrosis, testicular atrophy, diarrhea: % of patients [6]: ≥ 1% | changes in liver function [7]: no evidence of any clinically significant changes in liver function
